Assay results as given in the NIST ThermoML archive (doi:10.1016/j.jct.2016.09.028).
± gives the expanded uncertainty stated by the source.

Test: xn = mol fraction of the nth substance listed
Settings: 100 kPa, Liquid; for speed of sound: Frequency=3 MHz, Sing-around technique in a fixed-path interferometer; for mass density: Vibrating tube method

Nc1ccccc1 [aniline] + CCn1cc[n+](C)c1.F[B-](F)(F)F
Settings | mass density, 293.15 K [kg/m3] | mass density, 303.15 K [kg/m3] | mass density, 313.15 K [kg/m3] | mass density, 323.15 K [kg/m3] | speed of sound, 293.15 K [m/s] | speed of sound, 303.15 K [m/s] | speed of sound, 313.15 K [m/s] | speed of sound, 323.15 K [m/s]
x2 = 0 | 1021.69 ± 1 | 1013.04 ± 1 | 1004.36 ± 1 | 995.66 ± 1 | 1656.8 ± 1.3 | 1618.3 ± 1.3 | 1580 ± 1.3 | 1541.9 ± 1.3
x2 = 0.1008 | 1068.09 ± 1.5 | 1059.52 ± 1.5 | 1050.95 ± 1.5 | 1042.39 ± 1.4 | 1673.6 ± 1.4 | 1634.2 ± 1.4 | 1596.5 ± 1.4 | 1561.8 ± 1.4
x2 = 0.2035 | 1112.92 ± 1.5 | 1104.8 ± 1.5 | 1096.69 ± 1.5 | 1088.57 ± 1.5 | 1684.8 ± 1.5 | 1650.6 ± 1.5 | 1616.2 ± 1.5 | 1583 ± 1.5
x2 = 0.3059 | 1153.03 ± 1.6 | 1144.58 ± 1.6 | 1136.13 ± 1.5 | 1127.68 ± 1.5 | 1689.8 ± 1.6 | 1657.2 ± 1.6 | 1625.5 ± 1.6 | 1593 ± 1.6
x2 = 0.4053 | 1183.5 ± 1.6 | 1175.21 ± 1.6 | 1166.91 ± 1.6 | 1158.62 ± 1.6 | 1688.9 ± 1.7 | 1658.9 ± 1.7 | 1628.7 ± 1.7 | 1596.8 ± 1.7
x2 = 0.5073 | 1208.33 ± 1.6 | 1200.1 ± 1.6 | 1191.87 ± 1.6 | 1183.64 ± 1.6 | 1684.6 ± 1.8 | 1654.5 ± 1.8 | 1624.2 ± 1.8 | 1593.2 ± 1.8
x2 = 0.6013 | 1227.06 ± 1.7 | 1219.01 ± 1.7 | 1210.96 ± 1.7 | 1202.91 ± 1.7 | 1673.9 ± 1.9 | 1646.2 ± 1.9 | 1617.6 ± 1.9 | 1589.3 ± 1.9
x2 = 0.7046 | 1244.52 ± 1.8 | 1236.64 ± 1.8 | 1228.76 ± 1.8 | 1220.88 ± 1.8 | 1660.6 ± 2 | 1634.7 ± 2 | 1608.8 ± 2 | 1582.3 ± 2
x2 = 0.8067 | 1260.47 ± 1.9 | 1252.74 ± 1.9 | 1245.01 ± 1.9 | 1237.28 ± 1.8 | 1648.4 ± 2.1 | 1623.8 ± 2.1 | 1599.4 ± 2.1 | 1575.4 ± 2.1
x2 = 0.9059 | 1272.26 ± 2 | 1264.62 ± 2 | 1256.98 ± 2 | 1249.34 ± 1.9 | 1638.8 ± 2.2 | 1614.2 ± 2.2 | 1591.8 ± 2.2 | 1568.9 ± 2.2
